From article PMC7507959, “A Structure-Based Mechanism for DNA Entry into the Cohesin Ring” (Molecular Cell, 2020) come the findings set out here.

B1: Ssl3 (natural protein, fission yeast (S. pombe), UniProt O94459 1-559, looked up)
chain: MTGLNETDARILVTSRHLFLWPLAETYFKNAEKVLQDCGVCDSFGRLLSTGLQCLYSVLMDTKMEPRVELLTRKRICEVLLSHTVEYADVEAILNRALIIAEQHNLTEYKFSLQLLLSRVFCRTSPKAAKVLLTRCVREAEEYAKVAEIYHSNNQSNPHRWVYEFLLATLEFQNVSQVANSIHNYANHHKHQHLQLLAMILNQSLPMDEISTDSDQISILCLVTQIAQCLRKGEILLAREILPKIHSKLESETFVWPSSYIDFFIDDTSKISIKWMSINQLYLLIYLISGFCYISDSTSGRASRFLQEGLRITGDFKHQERCVLEYLESQKWINNITKDMKYYLIATYLSRSRLSKAERILQSTEDDQTGFLGILKGMYLQKRGDLKKAEVHYRETAKNFSFRTDTFIISTLNLINILEDSAAASRCLESIEPLCNKHEKKIFKLWLLVLKVIREGPQVHQSNVLPRVIQQSSEYANTQLQYISLTELSERFGKLEHAEKMAISALELAKKSKDELWCLISGRILEDFYRSVQKYDKMRQQALENSAYSKLIEDIYSFV
notes: Ssl3 (Scc4/MAU2), small subunit of the fission yeast cohesin loader; Used as the Mis4-Ssl3 complex; construct (plasmid pSsl3) from Murayama and Uhlmann, 2014; also called Ssl3^Scc4/MAU2; Scc4; source: fission yeast, thiamine-repressible expression, purified as Mis4-Ssl3
B2: Psc3 (natural protein, fission yeast (S. pombe), UniProt O13816 1-962, looked up)
chain: MSESVTTGSDDDGGDRESSPVMLSQSFDPMSSSSNSSSEENSDDDYEKTISSKKRHPRPNSKGVNVKRSRRNAIVEEDPQEEIFNNLFAFLLDQKVDTMDIAVSWFADYAKDNQSALANLINFILKCCGCNRAINVFDVQDQDSASATLSQIQLSVERTSTRDYPLNSKNLKFRNFRKRLTGLLSNFVSQLSIRNYLYNSTVFEDIMSWVVAMSSSTMRPIRHTATVFCLNIMTFLCEKSKELLNEHAIATKQLEKEEKRSRVNRNRINELNNSLGEIVKQQDTLTTYLNDYFDSVFVHRYRDVEPKIRVDCLQELGVWINTVPSIFFSGSYLRYLGWMLSDINTTVRLTVVKVLRKFFETDSFIGGLRHFSSRFKERILEMSCVDADIGVRVASIRLCNAMRTCGFLENSEILKVLKLILDINPRVQREAVLFLCKVVDESVNEKIDLWGEEDYILKAFSQTSLTTFSVHWIKFSQMCKLLEEVRLSYQSSFDYDTLLRIFQKNGNFITPITQALLNACEIDSIYQSWEDISNFVLFDNYTSTLKDPIDSILSFCKLNDFQESILLQLLSASIQTVCNNNFITPKTVHNKQAAETTNDQNKDKDLLYLNLLPYINSITERNSASPTLLHDSLRLLFSMDLTEMTDPQLSRHFELLINNLKKFFLTNNDLQIIQGCTILFLRLDSIPALKEDLKLLVTDICDQTVTEFLKNFGSFNIQDAVITKDEFVIFEACLTRIEGCTSLKDFSDYPEFDIIYERLVSLLSRVPNSYEDTLKFSAINTLQSLLFWFFLRKDNPADEEKKKDDETKVFNCLINIMNNDSSKILQLQAARTFLETVIMKEGVKASHYNDDNRVSEEHNFLKPQFLDALLKILEGWLYTYAKVGQFPFKRLTQASSPHTQISLDKNPLNRRLLEHVCCDLTSKLLIVVSLSNTITPEFSQQFCELRGHYGPKLSAIVDEFLN
notes: Psc3 (Scc3/STAG1/2), HEAT repeat subunit of fission yeast cohesin; Subunit of the wild-type tetramer; constructs from Murayama and Uhlmann, 2014; also called Psc3^Scc3/STAG1/2; Scc3; source: budding yeast (W303 background), galactose-induced, purified as part of the cohesin tetramer

In assay [1] the target is T1, fission yeast cohesin (Psm1-Psm3-Rad21-Psc3) with Mis4-Ssl3 loader (Schizosaccharomyces pombe, UniProt O42649+O94383).
T1 construct: tetramer expressed in budding yeast (W303); Mis4-Ssl3 expressed in fission yeast; FRET rows carry SNAP on Psm1 and CLIP on Psm3 C termini; with Cohesin subunit rad21; Cohesin subunit psc3; Sister chromatid cohesion protein mis4; MAU2 chromatid cohesion factor homolog ssl3
T1 sequence (O94383 whole entry, one chain of several): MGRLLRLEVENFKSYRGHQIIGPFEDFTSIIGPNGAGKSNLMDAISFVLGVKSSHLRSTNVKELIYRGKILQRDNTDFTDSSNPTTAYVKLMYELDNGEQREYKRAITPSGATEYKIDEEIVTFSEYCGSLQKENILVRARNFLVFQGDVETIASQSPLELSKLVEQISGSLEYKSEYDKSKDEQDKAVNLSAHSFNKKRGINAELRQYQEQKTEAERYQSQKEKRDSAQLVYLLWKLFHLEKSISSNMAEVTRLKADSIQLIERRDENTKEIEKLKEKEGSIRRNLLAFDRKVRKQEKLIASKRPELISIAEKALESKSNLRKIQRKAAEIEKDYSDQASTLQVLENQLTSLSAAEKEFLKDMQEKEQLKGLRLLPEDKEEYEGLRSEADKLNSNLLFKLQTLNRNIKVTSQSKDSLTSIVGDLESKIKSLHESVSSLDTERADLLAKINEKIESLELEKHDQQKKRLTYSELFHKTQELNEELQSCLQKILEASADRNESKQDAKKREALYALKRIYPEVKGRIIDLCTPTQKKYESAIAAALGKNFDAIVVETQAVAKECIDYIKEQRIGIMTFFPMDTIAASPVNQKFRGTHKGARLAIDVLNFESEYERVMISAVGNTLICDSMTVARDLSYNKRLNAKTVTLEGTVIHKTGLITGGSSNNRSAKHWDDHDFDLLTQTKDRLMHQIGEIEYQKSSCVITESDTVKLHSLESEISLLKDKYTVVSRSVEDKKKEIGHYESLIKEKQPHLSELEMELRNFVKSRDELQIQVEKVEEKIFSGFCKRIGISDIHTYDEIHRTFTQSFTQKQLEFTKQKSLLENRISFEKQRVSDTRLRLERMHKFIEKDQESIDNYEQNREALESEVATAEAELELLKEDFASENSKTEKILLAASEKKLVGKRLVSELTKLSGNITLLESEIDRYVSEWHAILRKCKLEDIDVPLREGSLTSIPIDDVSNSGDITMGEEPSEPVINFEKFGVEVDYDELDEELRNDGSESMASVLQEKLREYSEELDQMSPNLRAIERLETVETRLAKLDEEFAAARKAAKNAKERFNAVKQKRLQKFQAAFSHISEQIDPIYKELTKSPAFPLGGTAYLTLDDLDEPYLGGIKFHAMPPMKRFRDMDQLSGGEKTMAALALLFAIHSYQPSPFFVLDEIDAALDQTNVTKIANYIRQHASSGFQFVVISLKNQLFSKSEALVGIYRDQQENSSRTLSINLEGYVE
T1 sequence (O42649 whole entry, one chain of several): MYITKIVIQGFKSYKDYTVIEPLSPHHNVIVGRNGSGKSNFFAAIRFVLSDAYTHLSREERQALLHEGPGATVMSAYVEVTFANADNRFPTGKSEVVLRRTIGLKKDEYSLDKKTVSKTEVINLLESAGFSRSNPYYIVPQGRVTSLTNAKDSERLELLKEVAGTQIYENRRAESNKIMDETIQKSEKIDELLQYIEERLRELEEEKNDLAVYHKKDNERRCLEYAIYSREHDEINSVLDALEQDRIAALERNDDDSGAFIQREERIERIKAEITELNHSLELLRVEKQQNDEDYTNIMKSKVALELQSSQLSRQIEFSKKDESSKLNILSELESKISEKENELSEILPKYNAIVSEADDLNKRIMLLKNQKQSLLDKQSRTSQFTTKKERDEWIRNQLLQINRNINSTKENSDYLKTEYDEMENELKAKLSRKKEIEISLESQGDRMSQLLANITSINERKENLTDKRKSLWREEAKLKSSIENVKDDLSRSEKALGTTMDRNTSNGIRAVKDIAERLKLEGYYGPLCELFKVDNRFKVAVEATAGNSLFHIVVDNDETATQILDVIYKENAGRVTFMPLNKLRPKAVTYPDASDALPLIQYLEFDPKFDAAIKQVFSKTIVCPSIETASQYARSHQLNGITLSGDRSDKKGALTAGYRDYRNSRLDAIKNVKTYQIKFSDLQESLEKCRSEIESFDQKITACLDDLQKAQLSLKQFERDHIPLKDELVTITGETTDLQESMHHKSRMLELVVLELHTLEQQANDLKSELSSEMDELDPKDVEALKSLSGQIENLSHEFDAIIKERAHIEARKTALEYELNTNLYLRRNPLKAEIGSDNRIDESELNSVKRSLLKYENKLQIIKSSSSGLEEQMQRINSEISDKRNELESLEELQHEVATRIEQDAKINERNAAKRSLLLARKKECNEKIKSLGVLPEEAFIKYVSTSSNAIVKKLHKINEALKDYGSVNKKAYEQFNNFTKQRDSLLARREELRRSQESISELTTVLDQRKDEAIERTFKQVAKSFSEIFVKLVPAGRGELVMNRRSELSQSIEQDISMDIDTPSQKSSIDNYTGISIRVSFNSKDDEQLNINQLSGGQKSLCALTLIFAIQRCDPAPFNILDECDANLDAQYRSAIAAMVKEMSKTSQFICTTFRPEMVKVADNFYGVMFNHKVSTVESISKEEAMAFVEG
T1 sequence (P30776 whole entry partner, one chain of several): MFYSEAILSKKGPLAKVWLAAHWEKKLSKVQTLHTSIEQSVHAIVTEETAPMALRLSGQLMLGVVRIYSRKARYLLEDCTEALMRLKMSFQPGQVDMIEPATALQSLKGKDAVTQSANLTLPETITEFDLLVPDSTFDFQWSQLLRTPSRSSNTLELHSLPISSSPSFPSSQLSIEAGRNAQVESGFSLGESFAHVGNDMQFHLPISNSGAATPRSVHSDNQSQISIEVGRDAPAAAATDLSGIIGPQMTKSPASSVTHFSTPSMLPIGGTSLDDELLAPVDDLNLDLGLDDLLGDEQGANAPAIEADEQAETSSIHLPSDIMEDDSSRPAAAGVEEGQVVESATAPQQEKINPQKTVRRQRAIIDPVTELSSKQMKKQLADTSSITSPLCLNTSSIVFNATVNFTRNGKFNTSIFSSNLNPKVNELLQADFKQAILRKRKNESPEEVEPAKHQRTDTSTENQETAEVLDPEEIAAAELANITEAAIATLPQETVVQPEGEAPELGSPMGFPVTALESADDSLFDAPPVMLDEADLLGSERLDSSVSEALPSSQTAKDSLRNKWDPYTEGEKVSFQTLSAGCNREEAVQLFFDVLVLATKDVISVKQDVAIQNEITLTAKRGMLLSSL
T1 sequence (Q09725 whole entry partner, one chain of several): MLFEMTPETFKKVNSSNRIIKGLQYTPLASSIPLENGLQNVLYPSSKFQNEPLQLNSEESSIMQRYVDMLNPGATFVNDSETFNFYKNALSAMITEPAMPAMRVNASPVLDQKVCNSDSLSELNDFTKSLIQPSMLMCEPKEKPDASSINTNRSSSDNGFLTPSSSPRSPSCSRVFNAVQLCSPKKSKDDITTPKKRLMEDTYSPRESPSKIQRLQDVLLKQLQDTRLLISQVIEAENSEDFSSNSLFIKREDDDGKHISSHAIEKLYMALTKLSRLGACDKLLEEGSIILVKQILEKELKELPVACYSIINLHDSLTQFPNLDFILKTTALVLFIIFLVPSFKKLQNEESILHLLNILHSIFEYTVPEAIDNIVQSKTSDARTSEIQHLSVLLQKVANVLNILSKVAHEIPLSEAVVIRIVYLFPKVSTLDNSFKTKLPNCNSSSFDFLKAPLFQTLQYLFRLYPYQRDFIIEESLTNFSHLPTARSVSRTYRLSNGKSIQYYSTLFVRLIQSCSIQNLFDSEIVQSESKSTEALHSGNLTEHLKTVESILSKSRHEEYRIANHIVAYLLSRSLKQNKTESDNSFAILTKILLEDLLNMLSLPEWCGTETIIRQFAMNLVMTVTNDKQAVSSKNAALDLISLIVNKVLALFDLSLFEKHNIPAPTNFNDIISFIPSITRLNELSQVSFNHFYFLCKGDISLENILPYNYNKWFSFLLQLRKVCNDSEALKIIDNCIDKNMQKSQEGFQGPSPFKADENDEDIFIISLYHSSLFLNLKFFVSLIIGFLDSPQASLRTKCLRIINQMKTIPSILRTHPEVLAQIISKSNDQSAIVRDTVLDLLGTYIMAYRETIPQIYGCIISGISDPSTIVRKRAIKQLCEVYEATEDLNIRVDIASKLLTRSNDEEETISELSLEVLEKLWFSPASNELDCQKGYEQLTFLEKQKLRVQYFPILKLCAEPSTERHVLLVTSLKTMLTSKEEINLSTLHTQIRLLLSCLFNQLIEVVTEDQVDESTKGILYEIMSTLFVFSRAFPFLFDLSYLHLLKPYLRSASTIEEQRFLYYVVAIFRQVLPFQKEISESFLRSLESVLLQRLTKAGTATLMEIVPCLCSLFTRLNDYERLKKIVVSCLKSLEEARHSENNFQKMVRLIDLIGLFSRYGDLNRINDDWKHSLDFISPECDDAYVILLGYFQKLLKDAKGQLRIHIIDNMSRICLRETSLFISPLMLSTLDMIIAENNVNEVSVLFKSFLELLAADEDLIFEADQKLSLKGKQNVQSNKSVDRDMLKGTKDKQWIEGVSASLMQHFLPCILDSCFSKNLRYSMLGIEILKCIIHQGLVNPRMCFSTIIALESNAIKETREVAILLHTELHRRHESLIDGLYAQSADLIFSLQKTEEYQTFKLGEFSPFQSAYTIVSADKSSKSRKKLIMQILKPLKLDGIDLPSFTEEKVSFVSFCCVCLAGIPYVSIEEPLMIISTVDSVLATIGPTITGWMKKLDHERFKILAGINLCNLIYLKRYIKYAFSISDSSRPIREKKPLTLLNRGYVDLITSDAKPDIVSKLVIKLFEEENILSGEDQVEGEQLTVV
Kind of assay: ATP hydrolysis, [gamma-33P]-ATP thin layer chromatography. Type of assay: biochemical. As to conditions: 0.25 mM ATP, Mis4-Ssl3, pBluescript dsDNA, 32 °C.

Assay [2] concerns the target T2, N17-cohesin with Mis4-Ssl3 loader (Schizosaccharomyces pombe, UniProt O42649+O94383).
T2 construct: gene psm1; as P1 but Rad21 lacks amino acids 1-17 (residues 18-646); expressed in budding yeast; with Cohesin subunit rad21; Cohesin subunit psc3; Sister chromatid cohesion protein mis4; MAU2 chromatid cohesion factor homolog ssl3
The description is as above. The format is biochemical. The note with it: 0.25 mM ATP, Mis4-Ssl3, pBluescript dsDNA, 32 °C.

The target of assay [3] is T3, fission yeast cohesin (Psm1-Psm3-Rad21-Psc3) with Mis4-Ssl3 loader (Schizosaccharomyces pombe, UniProt O42649+O94383, O42649:E1126Q/O94383:E1161Q).
T3 construct: tetramer expressed in budding yeast (W303); Mis4-Ssl3 expressed in fission yeast; FRET rows carry SNAP on Psm1 and CLIP on Psm3 C termini; with Cohesin subunit rad21; Cohesin subunit psc3; Sister chromatid cohesion protein mis4; MAU2 chromatid cohesion factor homolog ssl3
T3 sequence (O94383 whole entry E1161Q, one chain of several): as the sequence (O94383 whole entry, one chain of several) above, with E1161Q counted along it
T3 sequence (O42649 whole entry E1126Q, one chain of several): as the sequence (O42649 whole entry, one chain of several) above, with E1126Q counted along it
T3 sequence (P30776 whole entry partner, one chain of several): as the sequence (P30776 whole entry partner, one chain of several) above
T3 sequence (Q09725 whole entry partner, one chain of several): as the sequence (Q09725 whole entry partner, one chain of several) above
Kind of assay: FRET between SNAP/CLIP-labelled ATPase heads. The format is binding. As to conditions: hydrolysis-deficient EQ-cohesin; 0.5 mM ATP, Mis4-Ssl3, DNA, 1 mM MgCl2, pH 7.5, 32 °C.

The target in the assay “Psc3” is B2. Kind of assay: cross-linking; SDA (NHS-diazirine) UV crosslinking with mass spectrometry (CLMS), gripping state: 200 nM cohesin, 200 nM Mis4-Ssl3, 200 nM 125 bp dsDNA, 0.5 mM ADP and 0.5 mM BeSO4 + 10 mM NaF, 32°C 20 min. As to conditions: both partners purified.
A further assay concerns the target T4, Mis4 (fission yeast (S. pombe), UniProt Q09725 1-1587).
T4 construct: Mis4 (Scc2/NIPBL), fission yeast cohesin loader; Used as the Mis4-Ssl3 complex; construct from Murayama and Uhlmann, 2014; also called Mis4^Scc2/NIPBL; cohesin loader; source: fission yeast, thiamine-repressible expression, purified as Mis4-Ssl3
The description is as above. The note with it: both partners purified.

T4 sequence (Q09725 whole entry): as the sequence (Q09725 whole entry partner, one chain of several) above

As to `Nc1ncnc2c1ncn2[C@@H]1O[C@H](COP(=O)(O)OP(=O)(O)OP(=O)(O)O)[C@@H](O)[C@H]1O` [ATP], the “ATP hydrolysis, [gamma-33P]-ATP thin layer chromatography” value in assay [1] and in assay [2] was “loader-stimulated ATP hydrolysis were equal when using wild-type or N17-cohesin” each time. For the same molecule, the “FRET between SNAP/CLIP-labelled ATPase heads” value in assay [3] was “the presence of all three components—the loader, DNA, and ATP—resulted in a marked FRET increase”.

As to B1, the binding result in the assay with Psc3 is “binds”.

In the case of B2, the binding result in the assay with Mis4 is reported as “binds”.
